Measurements reported in ChEMBL document CHEMBL5316331, “Modulating Cytotoxicity with Lego-like Chemistry: Upgrading Mitochondriotropic Antioxidants with Prototypical Cationic Carrier Bricks” (J Med Chem, 2023).
Calls of active or inactive are those of the source.

How the values were obtained:
SH-SY5Y [1] = assay: Effect on cell death pathway in human SH-SY5Y cells assessed as increase in necrotic cells at 50 uM incubated for 24 hrs by Annexin V-FITC/PI staining based microscopy; type: functional
SH-SY5Y [2] = assay: Effect on cell death pathway in human SH-SY5Y cells assessed as increase in late apoptotic cells at 50 uM incubated for 24 hrs by Annexin V-FITC/PI staining based microscopy; type: functional
SH-SY5Y [3] = assay: Effect on cell death pathway in human SH-SY5Y cells assessed as increase in early apoptotic cells at 50 uM incubated for 24 hrs by Annexin V-FITC/PI staining based microscopy; type: functional
SH-SY5Y [4] = assay: Effect on cell morphology in human SH-SY5Y cells assessed as reduction in cell body at 100 uM incubated for 24 hrs by Phase-contrast microscopy; type: functional, cell-based
SH-SY5Y [5] = assay: Effect on cell death pathway in human SH-SY5Y cells assessed as increase in early apoptotic cells at 100 uM incubated for 24 hrs by Annexin V-FITC/PI staining based microscopy; type: functional
SH-SY5Y [6] = assay: Effect on cell death pathway in human SH-SY5Y cells assessed as increase in late apoptotic cells at 100 uM incubated for 24 hrs by Annexin V-FITC/PI staining based microscopy; type: functional
SH-SY5Y [7] = assay: Effect on cell death pathway in human SH-SY5Y cells assessed as increase in necrotic cells at 100 uM incubated for 24 hrs by Annexin V-FITC/PI staining based microscopy; type: functional
SH-SY5Y [8] = assay: Effect on cell mitochondrial mass in human SH-SY5Y cells assessed as reduction on mitochondrial mass at 50 uM incubated for 24 hrs by mito-tracker green dye based flow cytometry; type: functional; design: scale not given: the % may be the effect or the level left
SH-SY5Y [9] = assay: Effect on cell morphology in human SH-SY5Y cells assessed as reduction in neurite at 100 uM incubated for 24 hrs by Phase-contrast microscopy; type: functional, cell-based
SH-SY5Y [10] = assay: Effect on cell morphology in human SH-SY5Y cells assessed as reduction in cell body at 50 uM incubated for 24 hrs by Phase-contrast microscopy; type: functional, cell-based
SH-SY5Y [11] = assay: Effect on cell morphology in human SH-SY5Y cells assessed as reduction in neurite at 50 uM incubated for 24 hrs by Phase-contrast microscopy; type: functional, cell-based
SH-SY5Y [12] = assay: Neuroprotective activity against H2O2-induced human SH-SY5Y cells assessed as increase in cell viability at 10 uM preincubated for 30 mins followed by H2O2 addition and measured after 24 hrs by SRB assay; type: functional, cell-based; details: time 24.5 hrs
HepG2 [13] = assay: Cytotoxicity against human HepG2 cells assessed as decrease in lysosomal activity at > 10 uM incubated for 24 hrs by resazurin reduction assay; type: toxicity, cell-based; details: hepg2, 24 h
SH-SY5Y [14] = assay: Effect on cell mitochondrial mass in human SH-SY5Y cells assessed as reduction on mitochondrial mass at 10 uM incubated for 24 hrs by mito-tracker green dye based flow cytometry; type: functional; design: scale not given: the % may be the effect or the level left
SH-SY5Y [15] = assay: Antioxidant activity against human SH-SY5Y cells assessed as increase in proton leak-associated respiration at 10 uM incubated for 24 hrs followed by addition of oligomycin/FCCP/antimycin A /rotenone by Cell Mito stress assay based seahorse XF96 flux analyzer; type: functional
HepG2 [16] = assay: Cytotoxicity against human HepG2 cells assessed as decrease in cell mass at > 6.25 uM incubated for 24 hrs by SRB assay; type: toxicity, cell-based; details: hepg2, 24 h
SH-SY5Y [17] = assay: Antioxidant activity against human SH-SY5Y cells assessed as effect on intracellular ATP level at 10 uM incubated for 24 hrs followed by addition of oligomycin/FCCP/antimycin A /rotenone by Cell Mito stress assay based seahorse XF96 flux analyzer; type: functional
[18] = Drug uptake in C57BL/6J mouse liver mitochondria at 5 uM in presence of rotenone by UPLC analysis; type: ADME
SH-SY5Y [19] = assay: Neuroprotective activity against tBHP-induced human SH-SY5Y cells assessed as increase in cell viability at 10 uM preincubated for 30 mins followed by t-BHP addition at 15 uM and measured after 24 hrs by neutral dye uptake assay relative to control; type: functional; details: time 24.5 hrs
[20] = Drug uptake in C57BL/6J mouse liver mitochondria at 5 uM in presence of succinate by UPLC analysis; type: ADME
SH-SY5Y [21] = assay: Effect on cell death pathway in human SH-SY5Y cells assessed as increase in necrotic cells at 10 uM incubated for 24 hrs by Annexin V-FITC/PI staining based microscopy; type: functional
SH-SY5Y [22] = assay: Induction of mitochondrial membrane polarization in human SH-SY5Y cells at 10 uM incubated for 24 hrs by JC-1 staining based fluorescence assay; type: functional
[23] = Drug uptake in C57BL/6J mouse liver mitochondria at 5 uM in presence of FCCP by UPLC analysis; type: ADME
SH-SY5Y [24] = assay: Induction of mitochondrial membrane polarization in human SH-SY5Y cells at 50 uM incubated for 24 hrs by JC-1 staining based fluorescence assay; type: functional
SH-SY5Y [25] = assay: Effect on cell death pathway in human SH-SY5Y cells assessed as increase in late apoptotic cells at 10 uM incubated for 24 hrs by Annexin V-FITC/PI staining based microscopy; type: functional
SH-SY5Y [26] = assay: Cytotoxicity against human SH-SY5Y cells assessed as decrease in lysosomal activity at > 50 uM incubated for 24 hrs by neutral red uptake assay; type: toxicity, cell-based
SH-SY5Y [27] = assay: Antioxidant activity against human SH-SY5Y cells assessed as increase in ECAR at 10 uM incubated for 24 hrs followed by addition of oligomycin/FCCP/antimycin A /rotenone by Cell Mito stress assay based seahorse XF96 flux analyzer; type: functional
SH-SY5Y [28] = assay: Effect on cell morphology in human SH-SY5Y cells assessed as reduction in cell body at 10 uM incubated for 24 hrs by Phase-contrast microscopy; type: functional, cell-based
HepG2 [29] = assay: Cytotoxicity against human HepG2 cells assessed as decrease in cellular metabolic activity at > 10 uM incubated for 24 hrs by resazurin reduction assay; type: toxicity, cell-based; details: hepg2, 24 h
HepG2 [30] = assay: Cytotoxicity against human HepG2 cells assessed as decrease in lysosomal activity at > 3.1 uM incubated for 24 hrs by resazurin reduction assay; type: toxicity, cell-based; details: hepg2, 24 h
HepG2 [31] = assay: Cytotoxicity against human HepG2 cells assessed as decrease in cellular metabolic activity at > 3.1 uM incubated for 24 hrs by resazurin reduction assay; type: toxicity, cell-based; details: hepg2, 24 h
SH-SY5Y [32] = assay: Cytotoxicity against human SH-SY5Y cells assessed as decrease in lysosomal activity at > 25 uM incubated for 24 hrs by neutral red uptake assay; type: toxicity, cell-based
SH-SY5Y [33] = assay: Cytotoxicity against human SH-SY5Y cells assessed as decrease in cell mass at > 25 uM incubated for 24 hrs by SRB assay; type: toxicity, cell-based
SH-SY5Y [34] = assay: Effect on cell morphology in human SH-SY5Y cells assessed as reduction in neurite at 10 uM incubated for 24 hrs by Phase-contrast microscopy; type: functional, cell-based
SH-SY5Y [35] = assay: Effect on cell death pathway in human SH-SY5Y cells assessed as increase in early apoptotic cells at 10 uM incubated for 24 hrs by Annexin V-FITC/PI staining based microscopy; type: functional
SH-SY5Y [36] = assay: Cytotoxicity against human SH-SY5Y cells assessed as decrease in cellular metabolic activity at 1 to 100 uM incubated upto 48 hrs by resazurin reduction assay; type: toxicity, cell-based; details: dose 1-100 µM
SH-SY5Y [37] = assay: Antioxidant activity against human SH-SY5Y cells assessed as effect on ATP production-linked respiration at 10 uM incubated for 24 hrs followed by addition of oligomycin/FCCP/antimycin A /rotenone by Cell Mito stress assay based seahorse XF96 flux analyzer; type: functional
SH-SY5Y [38] = assay: Cytotoxicity against human SH-SY5Y cells assessed as decrease in lysosomal activity at 1 to 100 uM incubated upto 48 hrs by resazurin reduction assay; type: toxicity, cell-based; details: dose 1-100 µM
SH-SY5Y [39] = assay: Neuroprotective activity against tBHP-induced human SH-SY5Y cells assessed as increase in cell viability at 10 uM preincubated for 30 mins followed by t-BHP addition at 30 uM and measured after 24 hrs by neutral dye uptake assay relative to control; type: functional; details: time 24.5 hrs
[40] = Dissociation constant, pKa of the compound by UV-vis spectrophotometric analysis; type: physicochemical
SH-SY5Y [41] = assay: Neuroprotective activity against tBHP-induced human SH-SY5Y cells assessed as increase in cell viability at 10 uM preincubated for 30 mins followed by t-BHP addition and measured after 24 hrs by SRB assay; type: functional, cell-based; details: time 24.5 hrs

N#CC(C#N)=NNc1cccc(Cl)c1 [CARBONYL CYANIDE M-CHLOROPHENYLHYDRAZONE]
active: Activity (SH-SY5Y [1]) | Activity (SH-SY5Y [2]) | Activity (SH-SY5Y [3]) | Activity (SH-SY5Y [4]) | Activity (SH-SY5Y [5]) | Activity (SH-SY5Y [6]) | Activity (SH-SY5Y [7]) | Activity (SH-SY5Y [9]) | Activity (SH-SY5Y [10]) | Activity (SH-SY5Y [11])
77.4%: Activity (SH-SY5Y [8])

CS(=O)(=O)[O-].O=C(/C=C/c1ccc(O)c(O)c1)NCCCCCCCCCC[P+](c1ccccc1)(c1ccccc1)c1ccccc1
active: Activity (SH-SY5Y [15]) | Activity (SH-SY5Y [1]) | Activity (SH-SY5Y [2]) | Activity (SH-SY5Y [3]) | Activity (SH-SY5Y [21]) | Activity (SH-SY5Y [25]) | Activity (SH-SY5Y [27]) | Activity (SH-SY5Y [28]) | Activity (SH-SY5Y [34]) | Activity (SH-SY5Y [35]) | Activity (SH-SY5Y [10]) | Activity (SH-SY5Y [11]) | Activity (SH-SY5Y [41])
Not Active: Drug uptake [18]
124.8%: Activity (SH-SY5Y [22])
72.7%: Activity (SH-SY5Y [24])
54.9%: Activity (SH-SY5Y [39])
69.2%: Activity (SH-SY5Y [14])
Toxic: Activity (HepG2 [13]) | Activity (HepG2 [16]) | Activity (SH-SY5Y [26]) | Activity (HepG2 [29]) | Activity (HepG2 [30]) | Activity (HepG2 [31]) | Activity (SH-SY5Y [32]) | Activity (SH-SY5Y [33]) | Activity (SH-SY5Y [36]) | Activity (SH-SY5Y [38])
~ 25%: Drug uptake [20]
inactive: Activity (SH-SY5Y [12]) | Activity (SH-SY5Y [17]) | Activity (SH-SY5Y [37])
Active: Drug uptake [23]
95.1%: Activity (SH-SY5Y [19])
8.61: pKa [40]
